Data from patent publication US20120316105A1, “Polymyxin Derivates Useful As Antibacterial Agents” (priority 2011, published 2012).
Bridge positions count the residues as written; N and C are the ends. Square brackets hold non-standard residues; d marks the D form. Peptide text beside a SMILES is read from it. * marks the point of attachment. Benzoyl(3-Ph) = O=C(c1cccc(-c2ccccc2)c1)*; X18 = N#Cc1ccc(-c2cc(C(=O)*)ccc2C#N)cc1; X4 = N#Cc1cccc(-c2cc(C(=O)*)ccc2C#N)c1; X21 = N#Cc1cccc(-c2cc(C(=O)*)ccn2)c1; X29 = COc1cc(C(=O)*)cc(-c2ccccc2)c1; X15 = O=C(c1cccc(-c2cccc(F)c2)c1)*; X39 = COc1ccc(C(=O)*)cc1-c1ccccc1; X23 = O=C(c1cnnc(-c2ccccc2)c1)*; X28 = O=C(c1ccc(Oc2ccccc2)nc1)*; Dab = NCC[C@H](N)C(=O)O; Dap = NC[C@H](N)C(=O)O

How the values were obtained:
[1] = system: EC-1, mouse virulent strain of Escherichia coli; assay type: cell-based; settings: E. coli EC-1; overnight incubation, lower of duplicate values; trifluoroacetate salt (Example 1 and PMB sulfate)
Experimental: (§1) Minimum bactericidal concentration (MBC, mg/L), minimum inhibitory concentration (MIC, mg/L), and human renal proximal tubule epithelial cell line cytotoxicity concentration 50% (hRPTEC, TC50, micromolar) for compounds of Formula I are listed in Table 2. The compounds of Formula I were tested as the corresponding trifluoroacetate salt except for Example 1 which was tested as the sulfate salt. For Table 2 below: PMB=polymyxin B as the sulfate salt (Bedford Laboratories, pharmaceutical grade); PMB1=polymyxin B1 as the trifluoroacetate salt; Nona=polymyxin B nonapeptide as the trifluoroacetate salt. PMB1 and Nona were prepared using the solid phase methodology described in the experimental section herein.
(§2) The in vitro antibacterial activity of compounds of Formula I was evaluated by MIC testing according to Clinical and Laboratory Standards Institute (CLSI). See: Clinical and Laboratory Standards Institute. Methods for Dilution Antimicrobial Susceptibility Tests for Bacteria that Grow Aerobically; Approved Standard-Eighth Edition. CLSI document M7-A8 [ISBN 1-56238-689-1]. Clinical and Laboratory Standards Institute, 940 West Valley Road, Suite 1400, Wayne, Pa. 19087-1898 USA, 2006; also Clinical and Laboratory Standards Institute. Performance Standards for Antimicrobial Susceptibility Testing; Twentieth Informational Supplement. CLSI document M100-S20 [ISBN 1-56238-716-2]. Clinical and Laboratory Standards Institute. Methods for Determining Bactericidal Activity of Antimicrobial Agents; Approved Guideline. CLSI document M26-A (ISBN 1-56238-384-1). CLSI, 940 West Valley Road, Suite 1400, Wayne, Pa. 19087-1898 USA, 1999.
(§3) The MIC determination is a standard laboratory method for evaluating the antibacterial activity of a compound. The MIC represents the lowest drug concentration that inhibits visible growth of bacteria following overnight incubation. […] Typically, the drug concentration range is broken down into 2-fold increments (e.g. 0.06 mg/L, 0.12 mg/L, 0.25 mg/L, 0.50 mg/L, 1.0 mg/L, etc.) and the various drug concentrations are all individually incubated overnight with approximately the same number of bacteria. The MIC is then determined by visually inspecting the drug effect at each concentration, and identifying the lowest drug concentration that has inhibited bacterial growth as compared to the drug free control. Typically, bacteria continue to grow at drug concentrations lower than the MIC and don't grow at concentrations at and above the MIC.
(§4) The MIC values described in Table 2 below were derived from assays wherein each test compound was evaluated in duplicate. In cases where the duplicate values varied by 0-2-fold, the lower of the two values was reported below. Generally speaking, if the duplicate values varied by more than 2-fold, the assay was considered non-valid and was repeated until the variation between duplicate runs was ≦2-fold. In line with the CLSI guidelines referred to above, both control organisms and reference compounds were utilized in each MIC assay to provide proper quality control. MIC values generated with these control organisms and reference compounds were required to fall within a defined range for the assay to be considered valid and be included herein. Those skilled in the art will recognize that MIC values can and do vary from experiment to experiment. Generally speaking, it should be recognized that MIC values often vary +/−2-fold from experiment to experiment. While a single MIC is reported for each compound and each microorganism, the reader should not conclude that each compound was only tested once. Several of the compounds were subjected to multiple tests. The data reported in Table 2 is reflective of the compounds relative activity and different MICs may have been generated on these occasions in line with the guidelines described above.
The following bacterial strains were used in these MIC determinations:
EC-1 is a mouse virulent strain of Escherichia coli.

[2] = Cytotoxicity assay (LDH release), hRPTEC; assay type: cell-based, human; settings: human
Experimental: as §1
Human Renal Proximal Tubule Epithelial cells (hRPTEC) were obtained from Lonza (Walkersville, Md., USA) and cultured in REGM (Renal Epithelial Cell Basal Medium supplemented with human epithelial growth factor, hydrocortisone, epinephrine, insulin, triiodothyronine, transferrin, gentamycin/amphotericin-B, and fetal bovine serum). The hRPTEC cells were seeded into 96-well plates and incubated at 37° C. in 5% CO2. Following a growth period of 72 hours, cells were treated with compounds at 100, 67, 44, 30, 20 and 13 micromolar for 24 hours at 37° C. in 5% CO2. The cell supernatant was then harvested for determination of LDH (lactate dehydrogenase) production. The Cytotoxicity Detection Kit from Roche was used for the measurement of LDH activity released from damaged cells. The Toxic Concentration 50% (TC50, micromolar) values were determined for each compound and compared to the control compounds (polymyxin B was used as a positive control and polymyxin B nonapepetide was used as negative control).

[3] = system: PA-1646, polymyxin-resistant clinical isolate of Pseudomonas aeruginosa; assay type: cell-based; settings: PA-1646, polymyxin-resistant clinical isolate of
Experimental: as §1, §2
PA-1646 is a polymyxin-resistant clinical isolate of Pseudomonas aeruginosa obtained from JMI labs (www.jmilabs.com);

[4] = system: AB-1649, polymyxin-resistant clinical isolate of Acinetobacter baumannii; assay type: cell-based; settings: AB-1649, polymyxin-resistant clinical isolate of
Experimental: as §1, §2
AB-1649 is a polymyxin-resistant clinical isolate of Acinetobacter baumannii obtained from JMI labs (www.jmilabs.com);

[5] = system: AB-3167, clinical isolate of Acinetobacter baumannii; assay type: cell-based; settings: AB-3167, clinical isolate of
Experimental: as §1, §2, §3, §4
(§5) The following bacterial strains were used in these MIC determinations: […]

[6] = system: AB-1649, polymyxin-resistant clinical isolate of Acinetobacter baumannii; assay type: cell-based; settings: AB-1649, polymyxin-resistant clinical isolate of; remark: listed apart in the source
Experimental: as §1, §2, §3, §4, §5

[7] = system: PA-1646, polymyxin-resistant clinical isolate of Pseudomonas aeruginosa; assay type: cell-based; settings: PA-1646, polymyxin-resistant clinical isolate of; remark: listed apart in the source
Experimental: as §1, §2, §3, §4, §5

[8] = system: Pseudomonas aeruginosa strain PA01; assay type: cell-based; settings: strain
Experimental: as §1, §2, §3, §4, §5

SMILES	EC-1 MIC [1]	CC50 at 24 h [2]	PA-1646 MBC [3]	AB-1649 MBC [4]	AB-3167 MIC [5]	AB-1649 MIC [6]	PA-1646 MIC [7]	PA01 MIC [8]
CC(C)C[C@@H]1NC(=O)[C@@H](Cc2ccccc2)NC(=O)[C@H](CCN)NC(=O)[C@@H](NC(=O)[C@H](CN)NC(=O)[C@@H](NC(=O)[C@H](CCN)NC(=O)c2cnnc(-c3ccccc3)c2)[C@@H](C)O)CCNC(=O)[C@H]([C@@H](C)O)NC(=O)[C@H](CCN)NC(=O)[C@H](CCN)NC1=O [Example 11] (X23-[Dab]T[Dap][Dab][Dab][dF]L[Dab][Dab]T; lactam 4-C)	0.125 µg/mL	84 µM	8 µg/mL	4 µg/mL	0.25 µg/mL	2 µg/mL	2 µg/mL	0.25 µg/mL
CC(C)C[C@@H]1NC(=O)[C@@H](Cc2ccccc2)NC(=O)[C@H](CCN)NC(=O)[C@@H](NC(=O)[C@H](CN)NC(=O)[C@@H](NC(=O)[C@H](CCN)NC(=O)c2ccc(Oc3ccccc3)nc2)[C@@H](C)O)CCNC(=O)[C@H]([C@@H](C)O)NC(=O)[C@H](CCN)NC(=O)[C@H](CCN)NC1=O [Example 12] (X28-[Dab]T[Dap][Dab][Dab][dF]L[Dab][Dab]T; lactam 4-C)	0.25 µg/mL	61 µM	16 µg/mL	4 µg/mL	0.25 µg/mL	2 µg/mL	4 µg/mL	1 µg/mL
CC(C)C[C@@H]1NC(=O)[C@@H](Cc2ccccc2)NC(=O)[C@H](CCN)NC(=O)[C@@H](NC(=O)[C@H](CN)NC(=O)[C@@H](NC(=O)[C@H](CCN)NC(=O)c2ccc(C#N)c(-c3ccc(C#N)cc3)c2)[C@@H](C)O)CCNC(=O)[C@H]([C@@H](C)O)NC(=O)[C@H](CCN)NC(=O)[C@H](CCN)NC1=O [Example 13] (X18-[Dab]T[Dap][Dab][Dab][dF]L[Dab][Dab]T; lactam 4-C)	0.25 µg/mL	58 µM	4 µg/mL	2 µg/mL	0.25 µg/mL	2 µg/mL	2 µg/mL	0.5 µg/mL
CC(C)C[C@@H]1NC(=O)[C@@H](Cc2ccccc2)NC(=O)[C@H](CCN)NC(=O)[C@@H](NC(=O)[C@H](CN)NC(=O)[C@@H](NC(=O)[C@H](CCN)NC(=O)c2ccc(C#N)c(-c3cccc(C#N)c3)c2)[C@@H](C)O)CCNC(=O)[C@H]([C@@H](C)O)NC(=O)[C@H](CCN)NC(=O)[C@H](CCN)NC1=O [Example 14] (X4-[Dab]T[Dap][Dab][Dab][dF]L[Dab][Dab]T; lactam 4-C)	0.5 µg/mL	43 µM	16 µg/mL	2 µg/mL	0.5 µg/mL	2 µg/mL	4 µg/mL	0.5 µg/mL
CC(C)C[C@@H]1NC(=O)[C@@H](Cc2ccccc2)NC(=O)[C@H](CCN)NC(=O)[C@@H](NC(=O)[C@H](CN)NC(=O)[C@@H](NC(=O)[C@H](CCN)NC(=O)c2ccnc(-c3cccc(C#N)c3)c2)[C@@H](C)O)CCNC(=O)[C@H]([C@@H](C)O)NC(=O)[C@H](CCN)NC(=O)[C@H](CCN)NC1=O [Example 15] (X21-[Dab]T[Dap][Dab][Dab][dF]L[Dab][Dab]T; lactam 4-C)	0.125 µg/mL	43 µM	16 µg/mL	2 µg/mL	0.25 µg/mL	2 µg/mL	4 µg/mL	0.5 µg/mL
COc1ccc(C(=O)N[C@@H](CCN)C(=O)N[C@H](C(=O)N[C@@H](CN)C(=O)N[C@H]2CCNC(=O)[C@H]([C@@H](C)O)NC(=O)[C@H](CCN)NC(=O)[C@H](CCN)NC(=O)[C@H](CC(C)C)NC(=O)[C@@H](Cc3ccccc3)NC(=O)[C@H](CCN)NC2=O)[C@@H](C)O)cc1-c1ccccc1 [Example 16] (X39-[Dab]T[Dap][Dab][Dab][dF]L[Dab][Dab]T; lactam 4-C)	0.25 µg/mL	27 µM	2 µg/mL	2 µg/mL	0.5 µg/mL	2 µg/mL	1 µg/mL	0.5 µg/mL
COc1cc(C(=O)N[C@@H](CCN)C(=O)N[C@H](C(=O)N[C@@H](CN)C(=O)N[C@H]2CCNC(=O)[C@H]([C@@H](C)O)NC(=O)[C@H](CCN)NC(=O)[C@H](CCN)NC(=O)[C@H](CC(C)C)NC(=O)[C@@H](Cc3ccccc3)NC(=O)[C@H](CCN)NC2=O)[C@@H](C)O)cc(-c2ccccc2)c1 [Example 17] (X29-[Dab]T[Dap][Dab][Dab][dF]L[Dab][Dab]T; lactam 4-C)	0.25 µg/mL	26 µM	4 µg/mL	8 µg/mL	0.25 µg/mL	4 µg/mL	2 µg/mL	0.5 µg/mL
CC(C)C[C@@H]1NC(=O)[C@@H](Cc2ccccc2)NC(=O)[C@H](CCN)NC(=O)[C@@H](NC(=O)[C@H](CN)NC(=O)[C@@H](NC(=O)[C@H](CCN)NC(=O)c2cccc(-c3cccc(F)c3)c2)[C@@H](C)O)CCNC(=O)[C@H]([C@@H](C)O)NC(=O)[C@H](CCN)NC(=O)[C@H](CCN)NC1=O [Example 18] (X15-[Dab]T[Dap][Dab][Dab][dF]L[Dab][Dab]T; lactam 4-C)	0.25 µg/mL	22 µM	1 µg/mL	2 µg/mL	0.5 µg/mL	2 µg/mL	1 µg/mL	1 µg/mL
CC(C)C[C@@H]1NC(=O)[C@@H](Cc2ccccc2)NC(=O)[C@H](CCN)NC(=O)[C@@H](NC(=O)[C@H](CN)NC(=O)[C@@H](NC(=O)[C@H](CCN)NC(=O)c2cccc(-c3ccccc3)c2)[C@@H](C)O)CCNC(=O)[C@H]([C@@H](C)O)NC(=O)[C@H](CCN)NC(=O)[C@H](CCN)NC1=O [Example 19] ({Benzoyl(3-Ph)}-[Dab]T[Dap][Dab][Dab][dF]L[Dab][Dab]T; lactam 4-C)	0.25 µg/mL	21 µM	2 µg/mL	2 µg/mL	0.25 µg/mL	2 µg/mL	1 µg/mL	0.5 µg/mL
